According to patent US20260207654A1, “HEPARAN SULFATE AND ITS MIMETICS AS CHEMOKINE INHIBITORS” (INDIAN INSTITUTE OF SCIENCE EDUCATION AND RESEARCH, priority 2021, published 2026):

What was measured:
Experiment in all cases: Chemokine glycan microarray binding assay
Settings in all cases: maximum RFU set as 100% binding, average across 2 glycan concentrations and 3 chemokine dilutions (n=6)
[1] = target: T1, CXCL8 (Homo sapiens, UniProt P10145)
T1 sequence (P10145 21-99): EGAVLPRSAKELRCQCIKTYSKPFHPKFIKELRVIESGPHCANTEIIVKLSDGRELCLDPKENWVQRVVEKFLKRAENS
Protocol: (§1) Microarray Studies: The compounds of the present invention were covalently immobilized on epoxy group collated glass slides. Slides were rehydrated with dH2O and incubated for 30 min in a staining dish with 50° C. prewarmed ethanolamine (0.05 M) in Tris-HCl (0.1 M, pH 9.0) to block the remaining reactive epoxy groups on the slide surface, then washed with 50° C. prewarmed dH2O. Slides were centrifuged at 200 g for 3 min, then fitted with the ProPlate Multi-Array 16-well slide module (Grace Bio-lab P37001) to divide into the subarrays (blocks). Slides were washed with PBST (0.1% Tween 20), aspirated, and blocked with 200 μL/subarray of blocking buffer (PBS pH 7.3+1% w/v ovalbumin) for 1 h at RT with gentle shaking. Next, the blocking solution was aspirated and 100 μL/block of primary chemokines diluted in PBS pH 7.3+1% w/v ovalbumin were incubated with gentle shaking for 2 hours at RT. Slides were washed 4 times with PBST, then with PBS (without Tween-20) for 2 min. Bound antibodies were detected by incubating with biotinylated secondary detections (1 ng/μL) diluted in PBS, 200 μL/block at RT for 1 h. Slides were washed 4 times with PBST, then with PBS (without Tween-20) for 2 min and biotinylated antibodies were detected with Cy3-SA ([…]). Slides were washed 4 times with PBST, then with PBS for 10 min followed by removal from the ProPlate Multi-Array slide module and immediately dipping in a staining dish with dH2O for 10 min with shaking. The slides were then centrifuged at 200 g for 3 min, and the dry slides immediately scanned. Binding was tested at three serial dilutions, then detected with the relevant biotinylated secondary antibody (1 μg/mL) followed by Cy3-strepavidin (1.5 μg/mL). Arrays were scanned and RFUs were calculated of chemokines binding to 100 μM glycans printed at four replicates. Rank binding of chemokines (each at three dilutions) to glycans printed at four replicates each was calculated and summarized in Table 1. For each binding assay per printed block, the maximum RFU was determined and set as 100% binding. Then, binding to all other glycans in the same block was ranked in comparison to the maximal binding, and average rank binding (and SEM) for each glycan across the three examined concentrations of each chemokine was calculated. This analysis allowed to compare the glycan-binding profiles of the different chemokines and dissect their binding preferences.
(§2) Table 1. Chemokine glycan microarray binding assay. Binding was tested at 3 serial dilutions, then detected with the relevant biotinylated secondary antibody (1 μg/ml) followed by Cy3-Strepavidin (1.5 μg/ml) (Table SX). Arrays were scanned, relative fluorescent units (RFU) obtained, and maximum RFU determined and set as 100% binding. Then rank binding (per printed glycan per concentration, per each chemokine dilution, per printed block) was determined. Since each glycans was printed at 2 concentration, 100% binding was set separately for each concentration. Then, binding to all the other glycans at the same concentration was ranked in comparison to the maximal binding, and the average rank binding and SEM for each glycan across the two glycan concentrations and three examined dilutions of each chemokine was calculated (n=6, 2 glycan concentrations across 3 chemokine dilutions). This analysis allowed to compare the glycan binding profiles of the different chemokines and dissect their binding preferences. The mean rank is shown as a heatmap of all the examined binding assays together (red highest, blue lowest and white 50th percentile of ranking).

[2] = target: CCL2 (Homo sapiens, UniProt P13500)
CCL2, sequence (P13500 24-99, species assumed): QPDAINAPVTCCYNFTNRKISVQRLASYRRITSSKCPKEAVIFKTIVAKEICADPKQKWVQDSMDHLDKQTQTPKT
Protocol: as §1, §2

[3] = target: T2, CCL21 (Homo sapiens, UniProt O00585)
T2 sequence (O00585 24-134): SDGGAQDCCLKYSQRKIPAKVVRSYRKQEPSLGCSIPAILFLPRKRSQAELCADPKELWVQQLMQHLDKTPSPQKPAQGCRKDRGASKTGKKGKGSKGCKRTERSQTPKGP
Protocol: as §1, §2

[4] = target: T3, CCL5 (Homo sapiens, UniProt P13501)
T3 sequence (P13501 24-91): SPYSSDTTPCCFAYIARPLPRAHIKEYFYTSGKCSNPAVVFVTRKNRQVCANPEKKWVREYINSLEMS
Protocol: as §1, §2

[5] = target: CXCL12 (Homo sapiens, UniProt P48061)
CXCL12, sequence (P48061 22-93, species assumed): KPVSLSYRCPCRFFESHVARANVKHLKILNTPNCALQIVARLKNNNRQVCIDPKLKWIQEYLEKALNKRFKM
Protocol: as §1, §2

[6] = target: CCL7 (Homo sapiens, UniProt P80098)
CCL7, sequence (P80098 24-99, species assumed): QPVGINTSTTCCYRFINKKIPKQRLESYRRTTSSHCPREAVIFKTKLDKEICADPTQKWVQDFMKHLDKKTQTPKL
Protocol: as §1, §2

[7] = target: T4, CCL28 (Homo sapiens, UniProt Q9NRJ3)
T4 sequence (Q9NRJ3 20-127): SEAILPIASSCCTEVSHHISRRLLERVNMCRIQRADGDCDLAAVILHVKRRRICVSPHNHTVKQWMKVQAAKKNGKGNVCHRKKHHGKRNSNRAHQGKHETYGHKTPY
Protocol: as §1, §2

[8] = target: CCL13 (Homo sapiens, UniProt Q99616)
CCL13, sequence (Q99616 17-98, species assumed): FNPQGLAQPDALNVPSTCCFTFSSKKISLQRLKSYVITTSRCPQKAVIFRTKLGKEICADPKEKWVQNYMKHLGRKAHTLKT
Protocol: as §1, §2

[9] = target: T5, CXCL10 (Homo sapiens, UniProt P02778)
T5 sequence (P02778 22-98): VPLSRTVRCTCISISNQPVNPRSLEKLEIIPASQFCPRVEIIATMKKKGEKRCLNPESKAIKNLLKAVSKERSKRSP
Protocol: as §1, §2

SMILES	mean rank binding to CXCL8 [1]	mean rank binding to CCL2 [2]	mean rank binding to CCL21 [3]	mean rank binding to CCL5 [4]	mean rank binding to CXCL12 [5]	mean rank binding to CCL7 [6]	mean rank binding to CCL28 [7]	mean rank binding to CCL13 [8]	mean rank binding to CXCL10 [9]
NCCCO[C@@H]1O[C@@H](C(=O)O)[C@@H](O[C@H]2O[C@H](CO)[C@@H](O[C@@H]3O[C@@H](C(=O)O)[C@@H](O[C@H]4O[C@H](CO)[C@@H](O)[C@H](OS(=O)(=O)O)[C@H]4N)[C@H](O)[C@H]3O)[C@H](OS(=O)(=O)O)[C@H]2N)[C@H](O)[C@H]1O [Example 22, 3-Aminopropyl-O-[(2-amino-3-O-sulfonato-2-deoxy-α-D-glucopyranosyl)-(1→4)-O-(α-L-idopyranosyluronate)-(1→4)-O-(2-amino-3-O-sulfonato-2-deoxy-α-D-glucopyranosyl)]-(1→4)-O-α-L-idopyranosiduronate]	51%	28%	83%	20%	84%	78%	62%	58%	65%
CC(=O)NC1C(O)[C@H](O)C(COS(=O)(=O)O)O[C@@H]1O[C@@H]1C(C(=O)O)O[C@@H](O[C@@H]2C(COS(=O)(=O)O)O[C@H](O[C@@H]3C(C(=O)O)O[C@@H](OCCCN)C(O)C3O)C(NC(C)=O)C2O)C(O)C1O (stereo partly drawn) [Example 24, 3-Aminopropyl-O-[(2-acetamido-6-O-sulfonato-2-deoxy-α-D-glucopyranosyl)-(1→4)-O-(α-L-idopyranosyluronate)-(1→4)-O-(2-acetamido-6-O-sulfonato-2-deoxy-α-D-glucopyranosyl)]-(1→4)-O-α-L-idopyranosiduronate]	19%	13%	79%	24%	66%	73%	79%	81%	41%
CC(=O)N[C@H]1[C@@H](O[C@H]2[C@H](O)[C@@H](O)[C@H](OCCCN)O[C@H]2C(=O)O)O[C@H](COP(=O)(O)O)[C@@H](O[C@@H]2O[C@@H](C(=O)O)[C@@H](O[C@H]3O[C@H](COP(=O)(O)O)[C@@H](O)[C@H](O)[C@H]3NC(C)=O)[C@H](O)[C@H]2O)[C@@H]1O [Example 26]	10%	1%	81%	5%	75%	40%	39%	70%	48%

The remaining lines, values ahead:

mean rank binding to CXCL8 [1]	mean rank binding to CCL2 [2]	mean rank binding to CCL21 [3]	mean rank binding to CCL5 [4]	mean rank binding to CXCL12 [5]	mean rank binding to CCL7 [6]	mean rank binding to CCL28 [7]	mean rank binding to CCL13 [8]	mean rank binding to CXCL10 [9]	SMILES
29%	2%	78%	14%	59%	56%	78%	87%	55%	CC(=O)N[C@H]1[C@@H](O[C@H]2[C@H](O)[C@@H](OP(=O)(O)O)[C@H](OCCCN)O[C@H]2C(=O)O)O[C@H](COP(=O)(O)O)[C@@H](O[C@@H]2O[C@@H](C(=O)O)[C@@H](O[C@H]3O[C@H](COP(=O)(O)O)[C@@H](O)[C@H](O)[C@H]3NC(C)=O)[C@H](O)[C@H]2OP(=O)(O)O)[C@@H]1O [Example 21, 3-Aminopropyl-O-[(2-acetamido-6-O-phosphonato-2-deoxy-α-D-glucopyranosyl)-(1→4)-O-(2-O-phosphonato-α-L-idopyranosyluronate)-(1→4)-O-(2-acetamido-6-O-phosphonato-2-deoxy-α-D-glucopyranosyl)]-(1→4)-O-2-O-phosphonato-α-L-idopyranosiduronate]
5%	1%	25%	3%	25%	11%	38%	45%	15%	NCCCO[C@@H]1OC(C(=O)O)[C@@H](O[C@H]2OC(COS(=O)(=O)O)[C@@H](O[C@@H]3OC(C(=O)O)[C@@H](O[C@H]4OC(COS(=O)(=O)O)[C@@H](O)[C@H](O)C4N)C(O)[C@@H]3O)[C@H](O)C2N)C(O)[C@@H]1O (stereo partly drawn) [Example 23, 3-Aminopropyl-O-[(2-amino-6-O-sulfonato-2-deoxy-α-D-glucopyranosyl)-(1→4)-O-(α-L-idopyranosyluronate)-(1→4)-O-(2-amino-6-O-sulfonato-2-deoxy-α-D-glucopyranosyl)]-(1→4)-O-α-L-idopyranosiduronate]
